For two molecules, residual activity, IC50 and inhibition results are on record in ChEMBL document CHEMBL4507269, “Data for DCP probe BAY-386” (2021).

For data set [1], the target named is Protein kinase C eta type (Homo sapiens) (UniProt P24723). The settings on record: Compound concentration 1000.0 nM.
In data set [2] the target is T1, Proteinase-activated receptor 1 (Homo sapiens, UniProt P25116).
T1 sequence (P25116 whole entry): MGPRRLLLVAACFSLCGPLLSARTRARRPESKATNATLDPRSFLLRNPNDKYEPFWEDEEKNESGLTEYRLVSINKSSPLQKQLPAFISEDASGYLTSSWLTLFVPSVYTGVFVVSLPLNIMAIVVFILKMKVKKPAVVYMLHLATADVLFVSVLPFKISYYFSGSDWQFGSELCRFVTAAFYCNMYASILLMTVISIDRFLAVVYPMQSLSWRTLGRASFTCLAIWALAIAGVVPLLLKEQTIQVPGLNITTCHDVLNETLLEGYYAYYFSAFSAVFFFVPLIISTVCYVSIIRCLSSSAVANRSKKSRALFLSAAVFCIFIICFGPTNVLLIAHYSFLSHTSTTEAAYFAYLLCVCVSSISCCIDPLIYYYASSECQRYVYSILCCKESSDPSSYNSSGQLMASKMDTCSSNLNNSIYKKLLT
The data set can be described thus: Functional cellular assay (HEK cells) (F2R).

In data set [3] the target is Mitogen-activated protein kinase kinase kinase 20 (Homo sapiens) (UniProt Q9NYL2). The settings on record: Compound concentration 1000.0 nM.
For data set [4], the target named is Voltage-dependent N-type calcium channel subunit alpha-1B (Homo sapiens) (UniProt Q00975). The data set can be described thus: Inhibition of Calcium Channel N-Type at 10 µM in the Eurofins-Panlabs radioligand binding assay (Eurofins_assay_216000). The settings on record: Rattus norvegicus; Compound concentration 10.0 uM.
Data set [5] has as its target Mitogen-activated protein kinase kinase kinase 13 (Homo sapiens) (UniProt O43283). The settings on record: Compound concentration 1000.0 nM.
Data set [6] has as its target Substance-P receptor (Homo sapiens) (UniProt P25103). The data set can be described thus: Tachykinin NK1 Eurofins-Panlabs radioligand binding assay. The settings on record: Compound concentration 10.0 uM.
In data set [7] the target is Alpha-2C adrenergic receptor (Homo sapiens) (UniProt P18825). The settings on record: Compound concentration 10.0 uM.
The target in data set [8] is SRSF protein kinase 1 (Homo sapiens) (UniProt Q96SB4). The settings on record: Compound concentration 1000.0 nM.
The target of data set [9] is Epidermal growth factor receptor (Homo sapiens) (UniProt P00533). Briefly: Inhibition of Epidermal Growth Factor (EGF) at 10 µM in the Eurofins-Panlabs radioligand binding assay (Eurofins_assay_225510). The settings on record: Compound concentration 10.0 uM.
The target of data set [10] is GABA-A receptor; anion channel (Rattus norvegicus) (UniProt O09028+P15431+P18506+P18508+P19969+P20236+P23574+P23576+P28471+P28473+P30191+P62813+P63079+P63138+Q91ZM7+Q9ES14). The data set can be described thus: Inhibition of GABAA, Muscimol, Central at 10 µM in the Eurofins-Panlabs radioligand binding assay (Eurofins_assay_226500). The class given is protein-complex assay. The settings on record: Compound concentration 10.0 uM.

Data set [11] has as its target Neuropeptide Y receptor type 1 (Homo sapiens) (UniProt P25929). The data set can be described thus: Inhibition of Neuropeptide Y Y1 at 10 µM in the Eurofins-Panlabs radioligand binding assay (Eurofins_assay_257010). The settings on record: Compound concentration 10.0 uM.
Data set [12] deals with High affinity nerve growth factor receptor (Homo sapiens) (UniProt P04629). The settings on record: Compound concentration 1000.0 nM.
Data set [13] addresses Inhibitor of nuclear factor kappa-B kinase subunit alpha (Homo sapiens) (UniProt O15111). The settings on record: Compound concentration 1000.0 nM.
Data set [14] concerns the target RAC-gamma serine/threonine-protein kinase (Homo sapiens) (UniProt Q9Y243). The conditions noted are these: Compound concentration 1000.0 nM.
Data set [15] deals with T2, Alpha-1A adrenergic receptor (Homo sapiens) (UniProt P35348).
T2 sequence (whole entry): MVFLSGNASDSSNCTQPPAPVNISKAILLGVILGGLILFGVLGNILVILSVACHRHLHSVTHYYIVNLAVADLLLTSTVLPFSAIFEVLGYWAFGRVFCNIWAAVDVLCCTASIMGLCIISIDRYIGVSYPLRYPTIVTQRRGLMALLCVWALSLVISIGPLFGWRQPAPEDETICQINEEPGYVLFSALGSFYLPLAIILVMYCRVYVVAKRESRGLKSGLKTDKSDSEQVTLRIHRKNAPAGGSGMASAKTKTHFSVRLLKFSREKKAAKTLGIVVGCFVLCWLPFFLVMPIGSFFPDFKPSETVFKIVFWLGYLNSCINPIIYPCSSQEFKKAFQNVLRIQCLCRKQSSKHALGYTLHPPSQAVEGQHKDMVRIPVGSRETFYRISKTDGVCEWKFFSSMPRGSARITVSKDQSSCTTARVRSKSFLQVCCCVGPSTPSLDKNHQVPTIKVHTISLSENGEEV
The settings on record: Rattus norvegicus; Compound concentration 10.0 uM.

Data set [16] deals with cGMP-dependent protein kinase 1 (Homo sapiens) (UniProt Q13976). The settings on record: Compound concentration 1000.0 nM.
The species named for data set [17] is Rattus norvegicus. The settings on record: Compound concentration 10.0 uM.
The target of data set [18] is Mitogen-activated protein kinase kinase kinase 19 (Homo sapiens) (UniProt Q56UN5). The settings on record: Compound concentration 1000.0 nM.
Data set [19] addresses Vascular endothelial growth factor receptor 1 (Homo sapiens) (UniProt P17948). The settings on record: Compound concentration 1000.0 nM.
Data set [20] addresses hERG (KCNH2) (Homo sapiens, UniProt Q12809). The data set can be described thus: Inhibition of Potassium Channel hERG at 10 µM in the Eurofins-Panlabs radioligand binding assay (Eurofins_assay_265900). Details: ligand concentration 1.5 nM, non-specific ligand with concentration Astemizole, incubation time 60 min, incubation temperature 25 °C. The settings on record: HEK-293 cells that express human recombinant hERG, probe [3H] Astemizole, compound concentration 10 uM. Background: Block of hERG is tested as a sign of cardiac risk.

The target in data set [21] is T3, Adenosine receptor A3 (Homo sapiens) (UniProt P0DMS8).
T3 sequence (whole entry): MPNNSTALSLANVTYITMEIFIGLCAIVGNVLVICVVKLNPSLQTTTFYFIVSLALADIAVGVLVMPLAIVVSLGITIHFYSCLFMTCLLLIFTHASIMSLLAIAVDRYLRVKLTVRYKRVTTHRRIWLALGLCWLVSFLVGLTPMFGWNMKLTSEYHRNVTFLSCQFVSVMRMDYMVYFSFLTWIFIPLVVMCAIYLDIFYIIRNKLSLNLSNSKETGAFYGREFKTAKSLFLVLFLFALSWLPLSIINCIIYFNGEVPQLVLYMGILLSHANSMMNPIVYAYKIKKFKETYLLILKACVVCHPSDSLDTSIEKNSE
The settings on record: Compound concentration 10.0 uM.

Data set [22] deals with Platelet. Briefly: Inhibition of platelet aggregation (human plasma, TRAP-6) (IC50). Type of data set: cell-based.
Data set [23] deals with Epidermal growth factor receptor (Homo sapiens), P00533 [UNDEFINED MUTATION]. The conditions noted are these: Compound concentration 1000.0 nM.
Data set [24] addresses Glutamate NMDA receptor (Rattus norvegicus) (UniProt P35439+Q00959+Q00960+Q00961+Q62645+Q8VHN2+Q9R1M7). The conditions noted are these: Compound concentration 10.0 uM.
Data set [25] has as its target 5-hydroxytryptamine receptor 3A (Homo sapiens) (UniProt P46098). The conditions noted are these: Compound concentration 10.0 uM.

Activity calls are given as the source filed them. The calls are words filed in the database; no cut-off is given here.

Sequence of Epidermal growth factor receptor (Homo sapiens), P00533 [UNDEFINED MUTATION] (P00533 whole entry, looked up, change not shown): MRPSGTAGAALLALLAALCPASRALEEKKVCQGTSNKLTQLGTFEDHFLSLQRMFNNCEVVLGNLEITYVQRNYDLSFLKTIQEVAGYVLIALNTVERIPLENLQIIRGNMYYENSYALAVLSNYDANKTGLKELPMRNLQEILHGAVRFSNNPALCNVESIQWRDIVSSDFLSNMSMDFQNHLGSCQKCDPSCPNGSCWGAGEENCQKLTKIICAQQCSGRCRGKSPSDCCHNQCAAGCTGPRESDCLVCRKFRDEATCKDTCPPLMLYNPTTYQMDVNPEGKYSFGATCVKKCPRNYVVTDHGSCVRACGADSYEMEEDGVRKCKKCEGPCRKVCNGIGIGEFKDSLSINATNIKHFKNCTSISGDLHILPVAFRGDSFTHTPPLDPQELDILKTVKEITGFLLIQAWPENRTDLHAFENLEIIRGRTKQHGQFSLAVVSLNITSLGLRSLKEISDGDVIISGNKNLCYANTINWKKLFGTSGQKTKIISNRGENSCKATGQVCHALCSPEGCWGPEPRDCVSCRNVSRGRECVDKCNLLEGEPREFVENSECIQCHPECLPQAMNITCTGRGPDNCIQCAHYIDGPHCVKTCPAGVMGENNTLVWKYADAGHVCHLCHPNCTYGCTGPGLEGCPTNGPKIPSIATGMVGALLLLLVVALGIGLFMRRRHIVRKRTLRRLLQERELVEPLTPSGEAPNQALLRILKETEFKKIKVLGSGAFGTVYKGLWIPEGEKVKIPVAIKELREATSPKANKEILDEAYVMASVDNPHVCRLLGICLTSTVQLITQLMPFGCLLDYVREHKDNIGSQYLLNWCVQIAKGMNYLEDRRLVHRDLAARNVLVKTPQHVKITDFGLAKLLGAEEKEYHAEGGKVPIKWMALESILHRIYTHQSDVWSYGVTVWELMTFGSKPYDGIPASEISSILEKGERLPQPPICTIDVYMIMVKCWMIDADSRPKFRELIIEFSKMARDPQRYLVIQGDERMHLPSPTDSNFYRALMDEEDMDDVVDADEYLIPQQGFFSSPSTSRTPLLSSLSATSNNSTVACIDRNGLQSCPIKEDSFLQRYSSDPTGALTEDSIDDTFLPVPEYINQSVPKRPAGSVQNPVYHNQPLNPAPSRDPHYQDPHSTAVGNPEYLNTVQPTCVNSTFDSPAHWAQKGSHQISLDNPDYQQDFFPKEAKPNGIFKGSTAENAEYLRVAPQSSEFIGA
Sequence of Mitogen-activated protein kinase kinase kinase 13 (Homo sapiens) (O43283 whole entry): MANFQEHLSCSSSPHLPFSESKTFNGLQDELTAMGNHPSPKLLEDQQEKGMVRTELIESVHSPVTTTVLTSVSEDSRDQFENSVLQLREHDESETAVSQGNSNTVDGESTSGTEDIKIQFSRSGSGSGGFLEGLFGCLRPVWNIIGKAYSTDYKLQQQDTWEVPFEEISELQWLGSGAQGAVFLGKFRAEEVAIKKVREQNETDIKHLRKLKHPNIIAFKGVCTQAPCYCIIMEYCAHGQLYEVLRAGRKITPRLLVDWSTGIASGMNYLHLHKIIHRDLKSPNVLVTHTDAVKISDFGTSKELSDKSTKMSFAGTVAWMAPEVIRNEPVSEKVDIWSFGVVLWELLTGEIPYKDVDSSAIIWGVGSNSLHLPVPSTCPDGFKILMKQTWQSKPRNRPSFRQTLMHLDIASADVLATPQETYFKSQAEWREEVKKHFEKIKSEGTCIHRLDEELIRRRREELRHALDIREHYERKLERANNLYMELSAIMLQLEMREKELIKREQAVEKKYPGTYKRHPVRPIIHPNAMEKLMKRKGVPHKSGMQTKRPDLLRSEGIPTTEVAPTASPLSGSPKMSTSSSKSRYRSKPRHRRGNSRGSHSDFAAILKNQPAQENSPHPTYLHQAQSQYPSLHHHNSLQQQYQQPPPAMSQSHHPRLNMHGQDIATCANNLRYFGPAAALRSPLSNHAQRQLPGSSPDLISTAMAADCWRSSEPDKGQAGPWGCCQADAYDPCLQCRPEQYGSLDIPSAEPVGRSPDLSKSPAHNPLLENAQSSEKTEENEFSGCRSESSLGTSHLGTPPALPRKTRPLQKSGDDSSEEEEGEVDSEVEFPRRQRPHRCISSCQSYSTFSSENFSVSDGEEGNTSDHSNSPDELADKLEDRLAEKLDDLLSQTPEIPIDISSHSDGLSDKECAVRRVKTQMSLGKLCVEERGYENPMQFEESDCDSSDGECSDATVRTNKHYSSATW
Sequence of cGMP-dependent protein kinase 1 (Homo sapiens) (Q13976 whole entry): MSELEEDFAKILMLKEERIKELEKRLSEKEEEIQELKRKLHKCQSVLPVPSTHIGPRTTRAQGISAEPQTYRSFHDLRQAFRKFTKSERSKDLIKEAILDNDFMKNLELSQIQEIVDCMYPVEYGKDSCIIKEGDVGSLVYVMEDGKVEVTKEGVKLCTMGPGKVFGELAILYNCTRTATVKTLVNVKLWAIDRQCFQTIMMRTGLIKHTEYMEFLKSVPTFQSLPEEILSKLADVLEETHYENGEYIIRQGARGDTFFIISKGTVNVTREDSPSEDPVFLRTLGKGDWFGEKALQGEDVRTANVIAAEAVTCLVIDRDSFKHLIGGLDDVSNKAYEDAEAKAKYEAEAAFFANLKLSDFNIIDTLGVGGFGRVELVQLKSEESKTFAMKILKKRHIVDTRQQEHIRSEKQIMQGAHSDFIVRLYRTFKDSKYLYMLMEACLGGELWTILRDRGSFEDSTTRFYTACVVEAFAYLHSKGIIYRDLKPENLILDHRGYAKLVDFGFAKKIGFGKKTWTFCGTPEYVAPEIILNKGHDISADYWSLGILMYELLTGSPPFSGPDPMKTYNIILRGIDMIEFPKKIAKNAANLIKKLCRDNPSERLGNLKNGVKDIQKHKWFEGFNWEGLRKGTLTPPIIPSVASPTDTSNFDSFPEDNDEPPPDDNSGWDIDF
Sequence of Protein kinase C eta type (Homo sapiens) (P24723 whole entry): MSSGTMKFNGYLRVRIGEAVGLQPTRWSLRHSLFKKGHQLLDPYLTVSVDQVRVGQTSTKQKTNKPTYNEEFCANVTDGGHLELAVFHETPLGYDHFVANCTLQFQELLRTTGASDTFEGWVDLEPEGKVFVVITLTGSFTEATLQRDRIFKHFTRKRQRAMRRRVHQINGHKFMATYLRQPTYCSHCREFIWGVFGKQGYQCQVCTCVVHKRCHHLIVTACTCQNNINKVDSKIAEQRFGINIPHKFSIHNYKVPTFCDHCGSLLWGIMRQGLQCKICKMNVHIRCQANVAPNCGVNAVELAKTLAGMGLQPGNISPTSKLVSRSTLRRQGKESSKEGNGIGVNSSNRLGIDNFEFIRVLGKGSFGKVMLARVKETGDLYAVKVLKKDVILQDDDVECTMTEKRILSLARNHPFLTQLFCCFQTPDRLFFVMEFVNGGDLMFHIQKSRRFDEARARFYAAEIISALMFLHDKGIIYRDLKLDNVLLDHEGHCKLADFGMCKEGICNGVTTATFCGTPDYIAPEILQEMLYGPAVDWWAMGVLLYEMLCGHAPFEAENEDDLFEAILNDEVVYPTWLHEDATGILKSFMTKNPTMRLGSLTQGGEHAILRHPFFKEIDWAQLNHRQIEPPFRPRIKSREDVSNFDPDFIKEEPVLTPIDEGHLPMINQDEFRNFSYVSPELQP
Sequence of Inhibitor of nuclear factor kappa-B kinase subunit alpha (Homo sapiens) (O15111 whole entry): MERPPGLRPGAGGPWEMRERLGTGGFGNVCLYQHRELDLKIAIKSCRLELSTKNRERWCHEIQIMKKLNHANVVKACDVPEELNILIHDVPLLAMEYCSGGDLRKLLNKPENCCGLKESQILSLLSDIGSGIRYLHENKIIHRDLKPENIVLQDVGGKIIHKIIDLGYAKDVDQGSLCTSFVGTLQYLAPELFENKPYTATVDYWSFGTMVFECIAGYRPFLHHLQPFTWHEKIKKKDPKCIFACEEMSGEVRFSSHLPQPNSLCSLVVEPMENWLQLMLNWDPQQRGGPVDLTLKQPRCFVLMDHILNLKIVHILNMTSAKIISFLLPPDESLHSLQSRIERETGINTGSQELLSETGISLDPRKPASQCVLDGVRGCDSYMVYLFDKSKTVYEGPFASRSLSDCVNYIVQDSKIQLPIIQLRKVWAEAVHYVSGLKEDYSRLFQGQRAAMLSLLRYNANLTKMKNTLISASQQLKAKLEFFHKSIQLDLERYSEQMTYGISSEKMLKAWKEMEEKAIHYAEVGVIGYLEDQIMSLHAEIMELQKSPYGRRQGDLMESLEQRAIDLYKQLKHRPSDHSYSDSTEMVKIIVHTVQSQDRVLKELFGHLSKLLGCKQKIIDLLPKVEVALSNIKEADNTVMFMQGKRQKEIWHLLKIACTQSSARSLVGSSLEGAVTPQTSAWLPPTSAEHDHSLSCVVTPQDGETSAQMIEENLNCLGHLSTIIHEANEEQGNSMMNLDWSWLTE
Sequence of SRSF protein kinase 1 (Homo sapiens) (Q96SB4 whole entry): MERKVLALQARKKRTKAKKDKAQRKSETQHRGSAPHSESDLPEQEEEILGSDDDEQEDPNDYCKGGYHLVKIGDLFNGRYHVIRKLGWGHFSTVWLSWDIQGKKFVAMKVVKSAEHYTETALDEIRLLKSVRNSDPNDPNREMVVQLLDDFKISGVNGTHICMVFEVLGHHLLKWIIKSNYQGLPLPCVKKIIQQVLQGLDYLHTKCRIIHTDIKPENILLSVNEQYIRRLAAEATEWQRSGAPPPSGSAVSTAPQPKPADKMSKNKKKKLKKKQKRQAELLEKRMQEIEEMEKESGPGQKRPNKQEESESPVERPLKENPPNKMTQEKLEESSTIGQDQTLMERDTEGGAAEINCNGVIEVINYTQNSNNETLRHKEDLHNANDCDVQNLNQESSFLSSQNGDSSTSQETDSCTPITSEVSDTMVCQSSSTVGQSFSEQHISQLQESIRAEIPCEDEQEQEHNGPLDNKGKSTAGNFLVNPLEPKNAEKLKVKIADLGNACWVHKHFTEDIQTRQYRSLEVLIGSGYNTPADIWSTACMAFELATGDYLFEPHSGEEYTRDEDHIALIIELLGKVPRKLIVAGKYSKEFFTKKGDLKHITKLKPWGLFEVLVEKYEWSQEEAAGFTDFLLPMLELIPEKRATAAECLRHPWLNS

As for `O=C(N1CCS(=O)(=O)CC1)N1C[C@H](c2ccc(OC(F)(F)F)cc2)C[C@H](c2nc(C3CC3)no2)C1` [BAY-386], the residual activity is 100% in data set [1]; 100% in data set [3]; 98% in data set [5]; 100% in data set [8]; 87% in data set [12]; 97% in data set [13]. Besides, the residual activity in [14] is 100%; in data set [16], 100%; in data set [18], 58%; in data set [19] it was 100%; in data set [23], 92%. Further, the results for the IC50 in data set [2] and in data set [22] were 10 nM (active) and 430 nM, respectively. In addition, the inhibition in data set [4] was 3%; in [6], -2%; in data set [7], 11.6%; in data set [9], -7%; in data set [10], 10%; in [11], 1%. Moreover, the inhibition is 1% in data set [15], 14% in data set [17], 12% in data set [21] and 12% in [24]. Besides, the inhibition at 60 min, 10 µM in [20] was 22% (not active).
Consider `Cc1noc([C@H]2C[C@@H](c3ccc(C(F)(F)F)cc3)CN(C(=O)N3CCS(=O)(=O)C3)C2)n1` [BAY-448], for which the residual activity was 95% in data set [1]; 87% in data set [3]; 100% in data set [5]; 100% in [8]; 90% in [12]; 100% in data set [13]. Further, the residual activity in data set [14] is 100%; in data set [16], 100%; in data set [18], 77%; in data set [19] it was 100%; in data set [23], 67%. Also, the concentration for half-maximal inhibition (IC50) in data set [2] was > 10000 nM (not active). Besides, the inhibition in data set [7] is 10.5%; in data set [25] it was 12.8%.

A word on the IC50: it is the point on the concentration scale where inhibition reaches its midpoint. One may read the inhibition as the relative decrease from the control value, in per cent.
